The data set concerns the target Multidrug resistance-associated protein 1 (Homo sapiens, UniProt P33527). Description: TP_TRANSPORTER: intracellular accumulation in MRP1-expressing GLC4/ADR cell. As to conditions: glc-4/adr. It counts as functional, cell-based.
Sequence of Multidrug resistance-associated protein 1 (P33527 whole entry): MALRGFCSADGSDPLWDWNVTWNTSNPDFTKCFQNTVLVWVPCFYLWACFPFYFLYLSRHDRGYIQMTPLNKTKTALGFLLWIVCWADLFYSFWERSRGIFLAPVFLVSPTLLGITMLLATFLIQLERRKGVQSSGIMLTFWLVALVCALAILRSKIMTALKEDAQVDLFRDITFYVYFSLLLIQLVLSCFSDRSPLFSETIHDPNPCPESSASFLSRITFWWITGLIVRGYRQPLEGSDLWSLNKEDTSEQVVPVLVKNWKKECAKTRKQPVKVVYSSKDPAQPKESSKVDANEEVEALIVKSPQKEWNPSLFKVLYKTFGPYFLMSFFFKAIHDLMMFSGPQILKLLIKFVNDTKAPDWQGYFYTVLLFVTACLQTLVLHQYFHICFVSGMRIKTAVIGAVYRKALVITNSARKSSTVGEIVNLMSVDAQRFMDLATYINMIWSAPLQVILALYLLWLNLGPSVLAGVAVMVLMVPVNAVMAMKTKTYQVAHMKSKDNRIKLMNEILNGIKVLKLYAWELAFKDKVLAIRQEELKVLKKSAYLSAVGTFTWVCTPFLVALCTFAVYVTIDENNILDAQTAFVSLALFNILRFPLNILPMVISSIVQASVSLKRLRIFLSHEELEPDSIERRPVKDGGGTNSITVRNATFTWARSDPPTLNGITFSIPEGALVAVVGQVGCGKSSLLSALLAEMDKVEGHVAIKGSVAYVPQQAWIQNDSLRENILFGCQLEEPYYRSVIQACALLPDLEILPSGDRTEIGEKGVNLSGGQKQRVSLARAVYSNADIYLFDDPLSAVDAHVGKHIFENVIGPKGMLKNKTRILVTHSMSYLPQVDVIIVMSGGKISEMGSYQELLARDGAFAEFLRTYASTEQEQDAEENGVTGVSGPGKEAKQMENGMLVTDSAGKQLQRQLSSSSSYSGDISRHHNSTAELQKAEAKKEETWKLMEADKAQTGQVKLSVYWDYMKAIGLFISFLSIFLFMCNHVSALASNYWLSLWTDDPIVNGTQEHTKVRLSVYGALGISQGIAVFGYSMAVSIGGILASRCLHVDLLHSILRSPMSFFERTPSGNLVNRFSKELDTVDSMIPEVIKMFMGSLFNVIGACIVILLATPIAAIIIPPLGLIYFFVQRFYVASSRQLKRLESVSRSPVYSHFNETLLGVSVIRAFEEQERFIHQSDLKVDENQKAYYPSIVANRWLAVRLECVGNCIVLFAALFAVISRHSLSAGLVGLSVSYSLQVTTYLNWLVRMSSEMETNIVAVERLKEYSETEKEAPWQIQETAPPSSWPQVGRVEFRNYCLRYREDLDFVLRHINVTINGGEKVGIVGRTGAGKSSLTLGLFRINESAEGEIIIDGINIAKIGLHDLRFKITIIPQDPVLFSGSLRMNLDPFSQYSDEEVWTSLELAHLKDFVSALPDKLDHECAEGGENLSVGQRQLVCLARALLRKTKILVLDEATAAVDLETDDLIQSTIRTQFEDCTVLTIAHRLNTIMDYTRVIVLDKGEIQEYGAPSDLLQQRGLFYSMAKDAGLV
Turning to `CC/N=c1\cc2oc3cc(NCC)c(C)cc3c(-c3ccccc3C(=O)OCC)c-2cc1C.Cl` [RHODAMINE 6G HYDROCHLORIDE], the Activity entry was “substrate [+]”. With `COC(=O)c1ccccc1-c1c2ccc(=[N+](C)C)cc-2oc2cc(N(C)C)ccc12` [RHODAMINE II], the Activity result is “substrate [+]”.

Turning to `CN(C)c1ccc2c(-c3ccccc3C(=O)[O-])c3ccc(N(C)C)cc3[o+]c2c1` [TETRAMETHYLRHODAMINE], the Activity entry is “substrate [+]”. On to `CCOC(=O)c1ccccc1-c1c2ccc(=[N+](C)C)cc-2oc2cc(N(C)C)ccc12` [RHODAMINE I], for which the Activity entry was “substrate [+]”.

The values above are taken from ChEMBL document CHEMBL2074342, “Kinetic analysis of rhodamines efflux mediated by the multidrug resistance protein (MRP1)” (Biophys J, 2003).
